Assay results: US10143666B2, “Small molecule inhibitors targeting CAG-repeat RNA toxicity in polyglutamine diseases” (The Chinese University of Hong Kong, priority 2015, dated 2018)

How the values were obtained:
[1] = system: trMJDCAA/G78 cells; assay: LDH cytotoxicity assay, trMJDCAA/G78 cell model; assay type: cell-based, human; conditions: only trMJDQ78 protein toxicity
Method: It was next investigated whether DB213 could mitigate expanded CAG-repeat RNA-mediated toxicity in SK-N-MC human neuronal cell. […] Taken together, DB213 could suppress the expanded CAG RNA-mediated but not polyQ protein-mediate toxicity in human neuronal cell.
SK-N-MC human neuronal cells were seeded on a 24-well plate and lactate dehydrogenase enzyme activity in the cell culture medium was measured 72 hours post-transfection and drugs treatment using the Cytotox 96 non-radioactive cytotoxicity assay (Promega).

[2] = mouse, in vivo, iv, 50 mg/kg
Method: Body temperature was measured from rectum on day 1 (baseline), and on days 3, 5 and 7.
Body temperature was measured from rectum on day 1 (baseline) and on days 3, 5 and 7.

[3] = system: DsRedCAG0 control fly; design: species or system Drosophila; conditions: in vivo
Description: The synthesis of DB213 was described in Marcheschi et al. (Scheme 1)^12, see FIG. 1. By using a MJD (one kind of polyQ diseases) Drosophila disease model, the inventors established an effective screening platform to test a series of synthesized small molecules for their activity to suppress polyQ-induced neurodegeneration. […] To test whether the compounds acted on CAG-repeat RNA level, another Drosophila model, DsRedCAG100^6, was employed. […] Therefore, DB213 was confirmed to modulate expanded CAG-repeat RNA-mediated toxicity in vivo.
(§1) Flies were raised at 21.5° C. on cornmeal medium supplemented with dry yeast. Pseudopupil assay was performed on 12 day-old adult flies as mentioned previously^18. Images were captured by SPOT Insight CCD camera controlled by the SPOT Advanced software (Diagnostic instruments Inc.). External eye assay was performed on 12 day-old adult flies by Olympus SZX-12 stereomicroscope. Eye images were captured using a SPOT Insight CCD camera (Diagnostic instruments Inc.).

[4] = system: R6/2 Huntington's mice; assay: Tolerability / mortality in R6/2 Huntington's mice after i.n. or i.v. dosing; conditions: for Mice lost in total: all dose groups; for Highest tolerated dose: R6/2 mice
Method: The objective of this study was to investigate the tolerability of i.n. or i.v. administrated Compound-5 (DB213) treatment on 1) neurological index (NI) scores, 2) body weight, 3) body temperature and 4) activity in open field test in R6/2 Huntington's mice.
i.n.: Group 1: 3 female and 3 male R6/2 mice treated with i.n. vehicle starting at 6 weeks of age and continuing for 7 days; Group 2: 3 female and 3 male R6/2 mice treated i.n. daily with Compound-5 at 50 mg/kg starting at 6 weeks of age and continuing for 7 days; Group 3: 3 female and 3 male R6/2 mice treated i.n. daily with Compound-5 at 100 mg/kg starting at 6 weeks of age and continuing for 7 days; Group 4: 3 female and 3 male R6/2 mice treated i.n. daily with Compound-5 at 200 mg/kg starting at 6 weeks of age and continuing for 7 days; Group 5: 3 female and 3 male R6/2 mice treated i.n. daily with Compound-5 at 300 mg/kg starting at 6 weeks of age and continuing for 7 days.
Compound-5 or vehicle was administered i.n. daily or i.v. twice-a-week starting at 6 weeks of age for 7 days.
i.v. administration: mice received 2 weekly i.v. injections into the tail vein. Mice were weighed on each treatment day and the dose adjusted accordingly to 1 ml/kg dose volume. For example, a mouse with a 30 g body weight received an i.v. injection of 30 μl. The whole i.v. injection process took 5-8 min per mouse.
i.n. administration: using a three fingered scruff, each mouse was restrained twice and held with neck parallel to the table while the compound was administered. The volume was 0.56 ml/kg. For example, a mouse with a 30 g body weight received in total 16.8 μl. During each restraint, 8.4 μl was administered to the left nostril as two 4.2 μl drops, followed by a 15 sec hold, and 8.4 μl was administered to the right nostril as two 4.2 μl drops, followed by a 15 sec hold. Notes were taken on the success of delivery and any lost volume greater than 2 μl were re-administered.
Animals were monitored twice-a-day by laboratory personnel (8 am and […]). […] Definitions of acceptable endpoints included: no spontaneous movements and inability to drink or eat in 24-h observation period, massive bleeding, spontaneous inflammation, missing anatomy, swelling or tumors larger than 20 mm, and inability to right itself in 30 sec period.

[5] = system: primary rat cortical neurons; assay: Cytotoxicity test on primary rat cortical neurons; assay type: cell-based
Description: To address the specificity of DB213 on expanded CAG-repeat RNA toxicity in vitro, another small molecule compound, C4G2, labeled as ligand 3 in the study^17, was employed.

[6] = system: CTG480 fly; assay: Neurodegeneration in CTG480 fly (Myotonic dystrophy 1 model); assay type: in vivo, Drosophila
Method: Other disease fly models, including α-synuclein (Parkinson's disease)^13, CTG480 (Myotonic dystrophy 1)^14 and CGG90 (Fragile X syndrome)^15 were employed to address the specificity of DB213 on trinucleotide repeat expansion RNA toxicity.
as §1

[7] = target: r(CAG)7 RNA; assay: Isothermal titration calorimetry (ITC) binding assay; conditions: 25° C., DB213 800 μM titrated to r(CAG)7 RNA 40 μM, one binding site model
Method: It was next investigated that whether DB213 would interact physically with CAG-repeat RNA and sequestrate the toxic RNA species from their pathogenic pathway. Isothermal titration calorimetry (ITC)^17 was adopted to identify the RNA-binding property of DB213.
Experiments were carried out using a MicroCal iTC200 isothermal titration calorimeter (GE Healthcare) at 25° C. Data were analyzed using the Origin® scientific plotting software version 7 (Microcal Software Inc.). DB213 (800 μM) was titrated to synthesized r(CAG)7 RNA (40 μM). The thermal titration data were fitted to the ‘one binding site model’ to determine the dissociation constant (KD).

[8] = i.v. 200 mg/kg group (so in the source)
[9] = i.v. 300 mg/kg group (so in the source)

Question: With CN(C)CCCNC(=N)c1ccc(C(=N)NCCCN(C)C)cc1.Cl.Cl.Cl.Cl [DB213] as the compound, how does the “Cell death level (LDH assay)” value [1] read?
Answer: did not alter the cell death level

Question: And the “Body temperature (group Mean)” value [2]?
Answer: 37.5

Question: What about the “Dominant toxic effect in control fly” value [3] of the same compound?
Answer: did not show any dominant toxic effect

Question: What about the Mortality ([4]; both intranasal and intravenous treatment) of the same compound?
Answer: increase mortality in dose-dependent manner

Question: And the Mice lost ([4]; i.n. daily 50 mg/kg, 7 days)?
Answer: 1 mouse

Question: And the “Mice lost, share of group” value ([4]; i.n. daily 50 mg/kg, 7 days)?
Answer: 16.7%

Question: What about the Mice lost ([4]; i.n. daily 100 mg/kg, 7 days) of the same compound?
Answer: 2 mice

Question: And the “Mice lost, share of group” value ([4]; i.n. daily 100 mg/kg, 7 days)?
Answer: 33.3%

Question: What about the Mice lost ([4]; i.n. daily 200 mg/kg, 7 days) of the same compound?
Answer: 4 mice

Question: And the “Mice lost, share of group” value ([4]; i.n. daily 200 mg/kg, 7 days)?
Answer: 66.7%

Question: What about the Mice lost ([4]; i.n. daily 300 mg/kg, 7 days) of the same compound?
Answer: 3 mice

Question: What about the “Mice lost, share of group” value ([4]; i.n. daily 300 mg/kg, 7 days) of the same compound?
Answer: 50%

Question: What about the “Mice lost in total” value ([4]; i.n. daily, 7 days) of the same compound?
Answer: 10 mice

Question: What about the Mice lost [4, 8] of the same compound?
Answer: 2 mice

Question: And the “Mice lost, share of group” value [4, 8]?
Answer: 100%

Question: What about the Mice lost [4, 9] of the same compound?
Answer: 2 mice

Question: And the “Mice lost, share of group” value [4, 9]?
Answer: 100%

Question: What about the Mice lost ([4]; i.v. twice-a-week 25 mg/kg) of the same compound?
Answer: 1 mouse

Question: What about the “Mice lost, share of group” value ([4]; i.v. twice-a-week 25 mg/kg) of the same compound?
Answer: 12.5%

Question: And the Mice lost ([4]; i.v. twice-a-week 50 mg/kg)?
Answer: 3 mice

Question: What about the “Mice lost, share of group” value ([4]; i.v. twice-a-week 50 mg/kg) of the same compound?
Answer: 75%

Question: What about the “Mice lost in total” value ([4]; i.v. twice-a-week) of the same compound?
Answer: 8 mice

Question: What about the Highest tolerated dose ([4]; intranasally) of the same compound?
Answer: 50 to 100 mg/kg

Question: What about the Highest tolerated dose ([4]; intravenously) of the same compound?
Answer: 12.5 to 25 mg/kg

Question: What about the “No observed cytotoxicity up to” value ([5]; cellular toxicity) of the same compound?
Answer: up to 12.8 μM

Question: What about the “Concentration up to which viability of wild-type primary neurons was not compromised” value ([5]; primary rat cortical neurons) of the same compound?
Answer: up to 12,800 nM

Question: What about the Suppression of neurodegeneration [6] of the same compound?
Answer: did not suppress the neurodegeneration

Question: What about the Kd [7] of the same compound?
Answer: 1530 ± 250 nM
